Target: T1, KRAS (G12D) (Homo sapiens, UniProt P01116, G12D)
T1 construct: in-cell western with KRAS G12D antibody after 24 h
Assay: KRAS (G12D) cellular degradation assay in AsPC-1 cells
Format: cell-based
Conditions: 24 hours, antibody fluorescence (Odyssey CLX), DC50 half-maximal degradation concentration
Experimental: ASPC-1 and PK-59 cellular assays ASPC-1 (ATCC cat. CRL-1682) and PK-59 (Nanjing Cobioer, Cat. No. CBP61184) were used in KRAS cellular degradation, pERK inhibition and proliferation assays. The two cell lines were maintained following vendor's instructions. For monitoring KRAS (G12D) cellular degradation and pERK biomarker inhibition, cells were seeded into a 96-well plate with 22,000 and 16,000 cells/well for assays in ASPC-1 and PK-59, respectively. Cells were incubated at 37° C. with 5% CO2 and cell density was monitored until ^~90% confluency was reached. Compounds were serially diluted at a 1:3 ratio and dispensed into each well at final concentrations ranging from […] to 1.5 nM. After incubation for 24 hours, the culture media were removed and the cells were subjected to fixation, permeabilization and blocking (Intercept blocking buffer, Li-cor). For KRAS (G12D) degradation, the cells were treated with primary antibody (KRAS G12D antibody, Cell Signaling Technologies, Cat. No. CST14429) and for β-actin (β-actin mAb, Beyotime, Cat. No. AF-5001), and followed by secondary antibodies, Anti-rabbit IgG (H+L) (DyLight™ 800 4×PEG Conjugate) or IRDye® 680RD Goat anti-Mouse IgG. For pERK inhibition assay, cells were treated with primary antibodies for pERK (Phospho-p44/42 MAPK (Erk1/2) (Thr202/Tyr204) (D13.14.4E) XP® Rabbit mAb, Cell Signaling Technologies, Cat. No. CST-4370) and β-actin (β-actin mAb, Beyotime, Cat. No. AF-5001), and followed by secondary antibodies, Anti-rabbit IgG (H+L) (DyLight™ 800 4×PEG Conjugate) or IRDye® 680RD Goat anti-Mouse IgG. Fluorescence signals were read on Odyssey CLX instrument. For cell proliferation assays, cells were seeded into a 96-well plate at 3,500 and 800 cells/well for assays in ASPC-1 and PK-59, respectively. Cells were incubated at 37° C. with 5% CO2 for overnight. Compounds were serially diluted at a 1:3 ratio and dispensed into each well at final concentrations ranging from […] to 1.5 nM. After incubation for 6 days, cell viability reagent (CellTiter Glo, Promega, Cat. No. G7573) was added to each well and luminescence was recorded on Molecular Devices Spectramax iD3 instrument. IC50, half-maximal inhibitory concentration for pERK inhibition or cell proliferation, and DC50, half-maximal degradation concentration in KRAS (G12D) cellular degradation were determined by fitting the corresponding dose response curves using GraphPad Prism software.
Wherein “A” means the value <10 nM, “B” means 10 nM<the value <100 nM, “C” means 100 nM<the value <1000 nM, and “D” means the value >1000 nM, in which, the value means the value of DC50 or IC50. NT means not tested.

T1 sequence (P01116 1-188 isoform P01116-2 G12D): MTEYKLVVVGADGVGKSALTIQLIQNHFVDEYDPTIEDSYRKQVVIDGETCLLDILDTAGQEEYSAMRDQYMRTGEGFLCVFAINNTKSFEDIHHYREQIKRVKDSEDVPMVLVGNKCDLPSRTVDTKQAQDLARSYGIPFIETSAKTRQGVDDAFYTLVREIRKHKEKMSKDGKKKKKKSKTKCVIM

| SMILES | DC50 [nM] |
| --- | --- |
| Cc1ncsc1-c1ccc([C@H](CO)NC(=O)[C@@H]2C[C@@H](O)CN2C(=O)[C@H](C(C)C)n2cc(-c3ccc(COc4c(-c5c(C)c(F)cc6[nH]ncc56)c(C5CC5)cc5c(N6C[C@H]7C[C@@H]6CN7)nc(OC6CCOCC6)nc45)cc3)nn2)cc1 (single isomer, unassigned) [Example 5A] | < 10 |
| Cc1ncsc1-c1ccc([C@H](CO)NC(=O)[C@@H]2C[C@@H](O)CN2C(=O)[C@H](C(C)C)n2cc(-c3ccc(COc4c(-c5c(C)c(F)cc6[nH]ncc56)c(C5CC5)cc5c(N6C[C@H]7C[C@@H]6CN7)nc(OC6CCOCC6)nc45)cc3)nn2)cc1 (single isomer, unassigned) [Example 5B] | > 1000 |
| CO[C@@H](C)COc1nc(N2C[C@H]3C[C@@H]2CN3)c2cc(C3CC3)c(-c3c(C)c(F)cc4n[nH]cc34)c(OCc3ccc(-c4cn([C@H](C(=O)N5C[C@H](O)C[C@H]5C(=O)N[C@@H](CO)c5ccc(-c6c(C)noc6C)cc5)C(C)C)nn4)cc3)c2n1 (single isomer, unassigned) [Example 6B] | > 1000 |
| CCn1nccc1-c1ccc(CNC(=O)[C@@H]2C[C@@H](O)CN2C(=O)[C@H](C(C)C)n2cc(-c3ccc(COc4c(-c5c(C)c(F)cc6[nH]ncc56)c(C5CC5)cc5c(N6C[C@H]7C[C@@H]6CN7)nc(OC[C@H](C)OC)nc45)cc3)nn2)cc1 (single isomer, unassigned) [Example 7B] | > 1000 |
| CO[C@@H](C)COc1nc(N2C[C@H]3C[C@@H]2CN3)c2cc(C3CC3)c(-c3c(C)c(F)cc4[nH]ncc34)c(OCc3ccc(-c4cn([C@H](C(=O)N5C[C@H](O)C[C@H]5C(=O)NCc5ccc(-c6scnc6C)cc5)C(C)C)nn4)cc3)c2n1 (single isomer, unassigned) [Example 11B] | > 1000 |
| CO[C@@H](C)COc1nc(N2CC3CCC(C2)N3)c2cc(C3CC3)c(-c3c(C)c(F)cc4[nH]ncc34)c(OCc3ccc(-c4cn([C@H](C(=O)N5C[C@H](O)C[C@H]5C(=O)N[C@@H](CO)c5ccc(-c6scnc6C)cc5)C(C)C)nn4)cc3)c2n1 (single isomer, unassigned) [Example 12B] | > 1000 |
| CCn1nccc1-c1ccc([C@H](CO)NC(=O)[C@@H]2C[C@@H](O)CN2C(=O)[C@H](C(C)C)n2cc(-c3ccc(COc4c(-c5c(C)c(F)cc6[nH]ncc56)c(C5CC5)cc5c(N6CC7CCC(C6)N7)nc(OC[C@H](C)OC)nc45)cc3)nn2)cc1 (single isomer, unassigned) [Example 13B] | > 1000 |
| CCn1nccc1-c1ccc([C@H](CO)NC(=O)[C@@H]2C[C@@H](O)CN2C(=O)[C@H](C(C)C)n2cc(-c3ccc(COc4c(-c5c(C)c(F)cc6[nH]ncc56)c(C5CC5)cc5c(N6C[C@H]7C[C@@H]6CN7)nc(OC6CCOCC6)nc45)cc3)nn2)cc1 (single isomer, unassigned) [Example 16B] | > 1000 |
| CO[C@@H](C)COc1nc(N(C)[C@H]2CCNC2)c2cc(C3CC3)c(-c3c(C)c(F)c(F)c4[nH]ncc34)c(OCc3ccc(-c4cn([C@H](C(=O)N5C[C@H](O)C[C@H]5C(=O)N[C@H](c5ccc(-c6scnc6C)cc5)C(C)O)C(C)C)nn4)cc3)c2n1 (stereo in doubt) [Example 145, (2S,4R)-1-((2S)-2-(4-(4-(((6-cyclopropyl-7-(6,7-difluoro-5-methyl-1H-indazol-4-yl)-2-((S)-2-methoxypropoxy)-4-(methyl((S)-pyrrolidin-3-yl)amino)quinazolin-8-yl)oxy)methyl)phenyl)-1H-1,2,3-triazol-1-yl)-3-methylbutanoyl)-4-hydroxy-N-((1R,2R)-2-hydroxy-1-(4-(4-methylthiazol-5-yl)phenyl)propyl)pyrrolidine-2-carboxamide] | < 10 |
| CCn1nccc1-c1ccc([C@H](CO)NC(=O)[C@@H]2C[C@@H](O)CN2C(=O)[C@H](C(C)C)n2cc(-c3ccc(COc4c(-c5c(C)c(F)cc6[nH]ncc56)c(C5CC5)cc5c(N6CCNCCC6C)nc(OC[C@H](C)OC)nc45)cc3)nn2)cc1 (stereo in doubt) [Example 153, (2S,4R)-1-((2S)-2-(4-(4-(((6-cyclopropyl-7-(6-fluoro-5-methyl-1H-indazol-4-yl)-2-((S)-2-methoxypropoxy)-4-((S)-7-methyl-1,4-diazepan-1-yl)quinazolin-8-yl)oxy)methyl)phenyl)-1H-1,2,3-triazol-1-yl)-3-methylbutanoyl)-N—((R)-1-(4-(1-ethyl-1H-pyrazol-5-yl)phenyl)-2-hydroxyethyl)-4-hydroxypyrrolidine-2-carboxamide] | 10 to 100 |
| CCn1nccc1-c1ccc([C@H](CO)NC(=O)[C@@H]2C[C@@H](O)CN2C(=O)[C@H](C(C)C)n2cc(-c3ccc(COc4c(-c5c(C)c(F)cc6[nH]ncc56)c(C5CC5)cc5c(N6CC7COCC(C6)N7)nc(OC[C@H](C)OC)nc45)cc3)nn2)cc1 [Example 37, (2S,4R)-1-((2S)-2-(4-(4-(((4-(3-oxa-7,9-diazabicyclo[3.3.1]nonan-7-yl)-6-cyclopropyl-7-(6-fluoro-5-methyl-1H-indazol-4-yl)-2-((S)-2-methoxypropoxy)quinazolin-8-yl)oxy)methyl)phenyl)-1H-1,2,3-triazol-1-yl)-3-methylbutanoyl)-N—((R)-1-(4-(1-ethyl-1H-pyrazol-5-yl)phenyl)-2-hydroxyethyl)-4-hydroxypyrrolidine-2-carboxamide] | 10 to 100 |
| CCn1nccc1-c1ccc([C@H](CO)NC(=O)[C@@H]2C[C@@H](O)CN2C(=O)[C@H](C(C)C)n2cc(-c3ccc(COc4c(-c5c(C)c(F)cc6[nH]ncc56)c(C5CC5)cc5c(N6CCC[C@](C)(O)C6)nc(OC[C@H](C)OC)nc45)cc3)nn2)cc1 [Example 39, (2S,4R)-1-((2S)-2-(4-(4-(((6-cyclopropyl-7-(6-fluoro-5-methyl-1H-indazol-4-yl)-4-((S)-3-hydroxy-3-methylpiperidin-1-yl)-2-((S)-2-methoxypropoxy)quinazolin-8-yl)oxy)methyl)phenyl)-1H-1,2,3-triazol-1-yl)-3-methylbutanoyl)-N—((R)-1-(4-(1-ethyl-1H-pyrazol-5-yl)phenyl)-2-hydroxyethyl)-4-hydroxypyrrolidine-2-carboxamide] | 10 to 100 |
| CCn1nccc1-c1ccc([C@H](CO)NC(=O)[C@@H]2C[C@@H](O)CN2C(=O)[C@H](C(C)C)n2cc(-c3ccc(COc4c(-c5c(C)c(F)c(F)c6[nH]ncc56)c(C5CCC5)cc5c(N6C[C@@H]7C[C@H]6CN7)nc(OC[C@H](C)OC)nc45)cc3)nn2)cc1 [Example 106, (2S,4R)-1-((2S)-2-(4-(4-(((4-((1S,4S)-2,5-diazabicyclo[2.2.1]heptan-2-yl)-6-cyclobutyl-7-(6,7-difluoro-5-methyl-1H-indazol-4-yl)-2-((S)-2-methoxypropoxy)quinazolin-8-yl)oxy)methyl)phenyl)-1H-1,2,3-triazol-1-yl)-3-methylbutanoyl)-N—((R)-1-(4-(1-ethyl-1H-pyrazol-5-yl)phenyl)-2-hydroxyethyl)-4-hydroxypyrrolidine-2-carboxamide] | 10 to 100 |
| CO[C@@H](C)COc1nc(N2C[C@@H]3C[C@H]2CN3)c2cc(C3CC3)c(-c3c(C)c(F)cc4[nH]ncc34)c(OCc3ccc(-c4cn([C@H](C(=O)N5C[C@H](O)C[C@H]5C(=O)N[C@H](C#Cc5cnccc5Cl)CO)C(C)C)nn4)cc3)c2n1 [Example 108, (2S,4R)-1-((2S)-2-(4-(4-(((4-((1S,4S)-2,5-diazabicyclo[2.2.1]heptan-2-yl)-6-cyclopropyl-7-(6-fluoro-5-methyl-1H-indazol-4-yl)-2-((S)-2-methoxypropoxy)quinazolin-8-yl)oxy)methyl)phenyl)-1H-1,2,3-triazol-1-yl)-3-methylbutanoyl)-N—((R)-4-(4-chloropyridin-3-yl)-1-hydroxybut-3-yn-2-yl)-4-hydroxypyrrolidine-2-carboxamide] | 10 to 100 |
